Experiments:
rats = assay: Induction of catalepsy in rats (extrapyramidal motor side effects); format: in vivo, rat; details: doses up to 500fold higher compared to the doses effective in the animal models
Method: (§1) Extrapyramidal motor side effects in e.g. rodents are measured by the ability of a drug to induce catalepsy. Catalepsy is defined as a state where an animal continues to remain in an unnormal (nonphysiological ‘uncomfortable’) posture for a long time (e.g.: M. E. Stanley and S. D. Glick, Neuropharmacology, 1996; 15: 393-394; C. J. E. Niemegeers and P. Janssen, Life Sci., 1979, […]). For example, if a hindpaw of a rat is placed on an elevated level, e.g. a platform elevated 3 cm above ground level, a normal rat immediately withdraws the hindpaw from the platform to the ground level. A cataleptic rat remains in this unnatural posture even for minutes.

[1] = tested on: catalepsy induced by haloperidol; assay: Catalepsy induced by conventional antidopaminergic drugs such as haloperidol; format: in vivo, rat; details: same dose-range as effective in the animal models
Method: as §1

[2] = tested on: Parkinsonian cynomolgus monkey; assay: Adverse effects of chronic l-dopa therapy in MPTP Parkinsonian cynomolgus monkey; format: in vivo; details: MPTP monkeys chronically treated with l-dopa
Method: Treatment of adverse effects of conventional anti-Parkinsonian drugs as defined above are determined in a modification of the animal model of the Parkinsonian cynomolgus monkey according to P. J. Blanchet et al., Exp. Neurology 1998; 153: 214-222. Monkeys render parkinsonian by repeated injections of 1-methyl-4-phenyl-1,2,3,6-tetrahydropyridine (MPTP). The Parkinsonian monkeys are chronically treated with the standard l-dopa therapy according to P. J. Blanchet et al., Mov. Disord., 1998; 13: 798-802. Longterm treatment with l-dopa induces extrapyramidal motor side effects and psychotic states which are both qualitatively and quantitatively, assessed by the Abnormal Involuntary Movement Scale (P. J. Blanchet et al., Mov. Disord. 1998; 13: 798-802) for different body parts (face, neck, trunk, each limb) and by rating for psychotic states by observing the monkey's attention, reactivity and mobility.

[3] = tested on: Parkinsonian cynomolgus monkey; assay: MPTP Parkinsonian cynomolgus monkey, Laval University Disability Scale; format: in vivo; details: MPTP monkeys
Source text: A typical animal model for idiopathic Parkinson's disease is the Parkinsonian cynomolgus monkey according to P. J. Blanchet et al., Exp. Neurology 1998; 153: 214-222. Monkeys render parkinsonian by repeated injections of 1-methyl-4-phenyl-1,2,3,6-tetrahydropyridine (MPTP). Parkinsonian symptoms are qualitatively assessed by the use of the Laval University Disability Scale (B. Gomez-Mancilla et al., 1993; Mov. Disord. 8: 144-150) measuring the following symptoms: posture, mobility, climbing, gait, holding food, vocalizing, grooming, social interaction.

[4] = tested on: rats with nigrostriatal degeneration; assay: Striatonigral degeneration in the rat, turning behavior; format: in vivo; details: 6-hydroxydopamine plus quinolinic acid lesioned rats
Source text: Another more recent animal model is the striatonigral degeneration approach in the rat according to […] et al., J. Neural Transm. Suppl., 1999; 55: 103-113. Rats receive an unilateral injection of 6-hydroxydopamine into the left medial forebrain bundle followed by an injection of quinolinic acid into the ipsilateral striatum inducing nigrostriatal degeneration. The degeneration results in turning behavior to a challenge with dopaminomimetics such as apomorphine or amphetamine. Turning behavior is measured by an automated recorder.

[5] = tested on: genetically dystonic hamsters; assay: Mutant dystonic hamster; details: in vivo
Source text: A typical animal model is the mutant dystonic hamster according to A. Richter and […], Prog. Neurobiol. 1998; 54: 633-677. In this genetically dystonic hamsters, dystonic attacks are provoked by taking the animal from the home cage and placing it on a balance. The dystonic syndrome consists of a sequence of abnormal movements, and the severity of the single symptoms is rated by a scoring system.

[6] = tested on: patients with cervical dystonia (spasmodic torticollis); assay: Double-blind, placebo-controlled study in cervical dystonia (TWSTRS); format: in vivo, human; details: 2.5 mg to 20 mg b.i.d.
[7] = tested on: rats challenged with haloperidol; assay: Neuroleptics-induced muscle rigidity in rats; details: rat, in vivo
Source text: A typical animal model is neuroleptics-induced muscle rigidity in rats according to S. Wolfarth et al, Arch. Pharmacol. 1992; 345: 209-212. Rats are challenged with the conventional neuroleptic drug haloperidol which enhances muscle tone. Muscle tone is electromechanically measured as the resistence to passive flexion and extension of the hind limb.

Pietrain pig = assay: Campus Syndrome in the Pietrain pig (tremor); format: in vivo
Source text: (§2) Typical genetic models in mutant animals are the Campus Syndrome in the Pietrain pig according to A. Richter et al. (Exp. Neurology, 1995; 134: 205-213) or the Weaver mutant mouse according to J. R. Simon and B. Ghetti (Mol. Neurobiol., 1994; 9: 183-189). In the Campus Syndrome model, these mutant pigs show a high-frequency tremor when standing and during locomotion, but not while lying at rest. Assessment of tremor is made by accelerometric recording. In the Weaver mutant mouse, degenerative cerebellar atrophy is fould in association with tremor, gait instability, and toppling over the sides after a few steps.

Weaver mutant mouse = Weaver mutant mouse (locomotor activity); details: in vivo
Source text: as §2

5-HT1A receptor = target: T1, 5-HT1A receptor (Homo sapiens, UniProt P08908); details: compared with buspirone (IC50 […] nmol/l)
T1 sequence (P08908 1-422): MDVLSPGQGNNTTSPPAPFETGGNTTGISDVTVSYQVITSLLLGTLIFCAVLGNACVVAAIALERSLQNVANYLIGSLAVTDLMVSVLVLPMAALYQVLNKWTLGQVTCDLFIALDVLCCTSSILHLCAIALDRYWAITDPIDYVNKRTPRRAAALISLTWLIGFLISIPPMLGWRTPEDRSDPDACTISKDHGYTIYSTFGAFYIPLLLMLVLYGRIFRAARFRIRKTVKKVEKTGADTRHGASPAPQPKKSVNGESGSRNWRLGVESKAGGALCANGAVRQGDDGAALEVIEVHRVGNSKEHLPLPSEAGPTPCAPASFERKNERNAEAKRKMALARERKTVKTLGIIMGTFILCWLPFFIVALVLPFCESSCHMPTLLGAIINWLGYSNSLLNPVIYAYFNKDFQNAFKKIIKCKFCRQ

Row | Compound | induction of catalepsy (rats) | prevention of catalepsy induced by conventional antidopaminergic drugs [1] | reversal of already existing catalepsy induced by conventional antidopaminergic drugs such as haloperidol [1] | overall choreiform dyskinesias and dystonic dyskinesias (Abnormal Involuntary Movement Scale) [2] | psychotic states (attention, reactivity, mobility rating) [2] | parkinsonian symptoms (Laval University Disability Scale) [3] | total activity [3] | turning behavior induced by apomorphine or amphetamine [4] | severity of dystonic symptoms (score) [5] | TWSTRS scores [6] | muscle tone enhanced by haloperidol (resistance to passive flexion and extension of the hind limb) [7] | tremor when standing and during locomotion (Pietrain pig) | locomotor activity (Weaver mutant mouse) | agonist potency at the 5-HT1A receptor in contrast to buspirone (5-HT1A receptor)
1 | Fc1ccc(-c2cncc(CNCC3CCc4ccccc4O3)c2)cc1 (racemic) [(R/S)-(−/+)-2-[5-(4-fluorophenyl)-3-pyridylmethylaminomethyl]-chromane] | do not induce any catalepsy | able to prevent catalepsy | reverses already existing catalepsy | reduced | reduced | reduced all the parkinsonian symptoms | increased total activity | dose-dependently antagonized | dose-dependently reduce the severity of dystonic symptoms | significant improvement | decrease the mucle tone enhanced by haloperidol | reduce disabling tremor | enhance locomotor activity | more potent agonists
2 | Fc1ccc(-c2cncc(CNC[C@@H]3CCc4ccccc4O3)c2)cc1 [(S)-(+)-2-[5-(4-fluorophenyl)-3-pyridylmethylaminomethyl]-chromane] | do not induce any catalepsy | able to prevent catalepsy | reverses already existing catalepsy | reduced | reduced | reduced all the parkinsonian symptoms | increased total activity | dose-dependently antagonized | dose-dependently reduce the severity of dystonic symptoms | significant improvement | decrease the mucle tone enhanced by haloperidol | reduce disabling tremor | enhance locomotor activity | more potent agonists

Source: US7872030B2, “Use of 2-[5-(4-fluorophenyl)-3-pyridylmethylaminomethyl]-chromane and its physiologically acceptable salts” (Merck Patent GmbH, priority 2001, dated 2011)
